Reference: patent US9572820B2, “Methods of treating autophagy-associated disorders and related pharmaceutical compositions, diagnostics, screening techniques and kits” (priority 2011, dated 2017)
Non-standard residues stand in square brackets, D forms with d. Residues, ends and D or L forms follow the SMILES beside them. Nle = CCCC[C@H](N)C(=O)O

The molecules below were run on LC3-GFP/RFP HeLa cells (assay: High-content imaging screen of LC3-GFP/RFP puncta (Cellomics ArrayScan)). Conditions: LC3-GFP/RFP puncta per cell, 4 hours incubation; hit = 3 standard deviations above or below mean of negative control wells.
Assay type: cell-based
Description: FIG. 1X6. Use of Cellomics ArrayScan to detect induction of authophagy. […] Wells were scanned for number, area, or intensity of GFP+ or RFP+ puncta per cell using a Cellomics ArrayScan. Negative control (DMF-treated) wells were also measured. Each dot represents the data from a single well.
FIG. 2X6. Chemical library screen for modulation of autophagy. LC3-RFP/GFP HeLa cells were incubated with compounds from the chemical library for 4 hours, then fixed in 0.1% PFA. Wells were scanned using a Cellomics ArrayScan. […] Each dot represents the data from a single well.
FIG. 4X6. […] Wells were scanned using a Cellomics ArrayScan. […] Each dot represents the data from four separate wells, and error bars are standard deviation.
LC3 is a widely-used marker for autophagic vacuoles. HeLa cells stably transduced with LC3-GFP/RFP tandem construct generate fluorescent autophagic puncta, which are either green/yellow (early autophagosomes) or red (late autophagosomes fused with lysosomes, which degrades the GFP). By quantitating the number or total area of fluorescent puncta per cell, we can detect alterations in autophagic flux and regulation. […]
Using the above system, we performed two separate screens on a chemical library. This library contains 1,200 FDA-approved compounds, and represents wide functional and chemical diversity. This library spans four 384-well plates, with 64 wells on each plate with DMSO only as negative controls. […] A hit was defined as 3 standard deviations above or below the mean of the negative control wells on a given plate.

| Molecule | modulation of autophagy (agonist/inducer or antagonist/inhibitor) |
| --- | --- |
| CNCC(O)c1ccc(OC(=O)C(C)(C)C)c(OC(=O)C(C)(C)C)c1 (stereo not drawn) [dipivefrin] | agonists or inducers of autophagy |
| CC(C)COCC(CN(Cc1ccccc1)c1ccccc1)N1CCCC1 (stereo not drawn) [bepridil] | agonists or inducers of autophagy |
| CC12CC3CC(C)(C1)CC(N)(C3)C2 [memantine] | agonists or inducers of autophagy |
| CN(Cc1cc(Br)cc(Br)c1N)C1CCCCC1 [bromhexine] | agonists or inducers of autophagy |
| CNCCC=C1c2ccccc2C=Cc2ccccc21 [norcyclobenzaprine] | agonists or inducers of autophagy |
| CC(=O)[O-].[Hg+][c]1ccccc1 [phenylmercuric acetate] | antagonists or inhibitors of autophagy |
| COC(=O)Nc1nc2cc(C(=O)c3ccc(F)cc3)ccc2[nH]1 [flubendazole] | agonists or inducers of autophagy |
| N#Cc1c(Cl)c(Cl)c(Cl)c(C#N)c1Cl [tetrachlorisophthalonitrile] | antagonists or inhibitors of autophagy |
| CN1CCCC(CC2c3ccccc3Sc3ccccc32)C1 (stereo not drawn) [metixene] | agonists or inducers of autophagy |
| CNCCC=C1c2ccccc2CCc2ccccc21 [nortriptyline] | agonists or inducers of autophagy |
| COCCCC/C(=N\OCCN)c1ccc(C(F)(F)F)cc1 [fluvoxamine] | agonists or inducers of autophagy |
| CC[N+](C)(CC)CCC[n+]1c(-c2ccccc2)c2cc(N)ccc2c2ccc(N)cc21.[I-].[I-] [propidium iodide] | agonists or inducers of autophagy |
| O=C(Nc1ccccc1)OCC(CN1CCCCC1)OC(=O)Nc1ccccc1 (stereo not drawn) [diperodon] | agonists or inducers of autophagy |
| CCN(CC)CCOc1ccc(C(=C(Cl)c2ccccc2)c2ccccc2)cc1.O=C(O)CC(O)(CC(=O)O)C(=O)O [clomiphene citrate (Z,E)] | agonists or inducers of autophagy |
| CCCCc1cc2ccccc2c(OCCN(C)C)n1 [dimethisoquin] | agonists or inducers of autophagy |
| Oc1c(Cl)cc(Cl)c(Cl)c1Cc1c(O)c(Cl)cc(Cl)c1Cl [hexachlorophene] | agonists or inducers of autophagy |

Same assay, conditions: from pp242 dose response

| Molecule | suboptimal dose that did not induce autophagy |
| --- | --- |
| CC(C)n1nc(-c2cc3cc(O)ccc3[nH]2)c2c(N)ncnc21 [pp242] | ~0.06 µM |

These molecules were tested on LC3-GFP/RFP HeLa cells (assay: Chemical library screen in the presence of a suboptimal dose of pp242). Conditions: suboptimal pp242 (~0.06 uM) plus library compound.
Assay type: cell-based

| Molecule | modulation of autophagy in combination with mTOR inhibitor (suboptimal pp242) |
| --- | --- |
| Cc1cccc(C)c1N=C1NCCCS1 [xylazine] | effective as autophagy modulators in combination |
| C[C@H]1O[C@@H](O[C@H]2[C@@H](O)C[C@H](O[C@H]3[C@@H](O)C[C@H](O[C@H]4CC[C@@]5(C)[C@H](CC[C@@H]6[C@@H]5C[C@@H](O)[C@]5(C)[C@@H](C7=CC(=O)OC7)CC[C@]65O)C4)O[C@@H]3C)O[C@@H]2C)C[C@H](O)[C@@H]1O [digoxin] | effective as autophagy modulators in combination |
| CCCCC(CC)CN1CN(CC(CC)CCCC)CC(C)(N)C1 (stereo not drawn) [hexetidine] | effective as autophagy modulators in combination |
| O=C1NCCN1CCN1CCC(c2cn(-c3ccc(F)cc3)c3ccc(Cl)cc23)CC1 [sertindole] | effective as autophagy modulators in combination |

The molecules below were run on IL-1α (assay: IL-1α release (ELISA) from LPS+IFN-γ stimulated BMM). Conditions: Atg5fl/fl LysM-Cre+ BMM, ALLN 100 μM.
Assay type: cell-based, murine

| Molecule | excess IL-1α production |
| --- | --- |
| CCCC[C@@H](C=O)NC(=O)[C@H](CC(C)C)NC(=O)[C@H](CC(C)C)NC(C)=O [ALLN] (Ac-Leu-Leu-[Nle]-aldehyde) | completely abrogated |

Same assay, conditions: Atg5fl/fl LysM-Cre− BMM, LPS+IFN-γ, 12 h; 50 μg/ml rapamycin, 10 mM 3-MA or 100 nM Bafilomycin A1

| Molecule | IL-1α secreted |
| --- | --- |
| Cn1cnc(N)c2ncnc1-2 [3-methyladenine] | significantly increased |

What follows are molecules tested on naïve CD4 T cells (assay: In vitro Th17 polarization of naïve CD4 T cells (intracellular IL-17A, flow cytometry)). Conditions: with TGF-β 5 ng/ml and IL-6 20 ng/ml; IL-1α or IL-1β 20 ng/ml, day 4.
Assay type: cell-based, mice

| Molecule | intracellular levels of IL-17A |
| --- | --- |
| IL-1α: cytokine used at 20 ng/ml to promote Th17 differentiation (protein, UniProt P01583 113-271, looked up) Interleukin-1 alpha: SAPFSFLSNVKYNFMRIIKYEFILNDALNQSIIRANDQYLTAAALHNLDEAVKFDMGAYKSSKDDAKITVILRISKTQLYVTAQDEDQPVLLKEMPEIPKTITGSETNLLFFWETHGTKNYFTSVAHPNLFIATKQDYWVCLAGGPPSITDFQILENQA | elevated |

The molecules below were run on IL-1β (assay: IL-1β secretion from LPS-pretreated BMMs (ELISA)). Conditions: pp242 in full medium, 1 h.
Assay type: cell-based, murine
Description: FIG. 1X3. induction of autophagy enhances IL-1β secretion. (A) Atg5fl/fl Cre^− and Atg^5fl/fl Cre^+ bone marrow-derived macrophages (BMMs), pretreated overnight with 100 ng/ml LPS, were stimulated for 1 h with the inflammasome agonist nigericin ([…]) with (Starvation; EBSS) or without (Full; full medium) autophagic induction. Cell culture supernatants were assayed for murine IL-1β by ELISA. Data represent mean values±s.d. (nX3); *Po0.05. (B) LPS-pretreated Atg5fl/fl Cre^− and Atg^5fl/fl Cre^+ BMMs were stimulated with […] nigericin for 1 h in OptiMEM and the release of active caspase-1 and IL-1β was determined by immunoblotting. (C) As in (A), assayed for IL-18. Data represent mean values±s.d. (nX3); *Po0.05. (D) LPS-pretreated BMMs were exposed to alum ([…]) for 1 h with or without autophagic induction by starvation. Secreted IL-1β was measured as in (A). Data represent mean values±s.d. (nX3); *Po0.05. (E) LPS-pretreated BMMs were exposed to silica ([…]) for 1 h with or without autophagic induction by starvation. Secreted IL-1β was measured as in (A). Data represent mean values±s.d. (nX3); *Po0.05. (F) BMMs were transfected with scramble (Scr) control siRNA or siRNAs against ASC and NLRP3. After 48 h following transfection, cells were treated overnight with LPS and subjected to nigericin ([…]) and starvation for 1 h. Data represent mean values±s.d. (nX3); *Po0.05. (G) Immunoblot analysis of ASC and NLRP3 knockdowns. (H) BMMs were transfected with scramble
FIG. 2X3 Autophagic pathway progression promotes secretion of inflammasome substrates. (A, B) LPS-pretreated BMMs were treated with […] nigericin (Nig) and 100 nM bafilomycin A1 (Baf) with (Starvation) or without (Full) autophagic induction for 1 h and secreted IL-1β (A) and IL-18 (B) were measured. Data represent mean values+s.d. (nX3); *Po0.05. (C) LPS-pretreated BMMs were treated with […] of silica and 100 nM bafilomycin A1 (Baf) with (Starvation) or without (Full) autophagic induction for 1 h and secreted IL-1β were measured. Data represent mean values±s.d. (nX3); *Po0.05. (D) Colocalization of cathepsin B with the basal autophagic machinery factor LC3 and IL-1b. Fluorescence; LC3 (green, Alexa488), IL-1β (red, Alexa568), and cathepsin B (blue, Alexa633). BMMs from GFP-LC3 knockin mice were treated with LPS and then analysed for immunofluorescence. (E) Colocalization line tracing analysis from images in (D). (F) LPS-pretreated BMMs were treated with […] nigericin and cathepsin B inhibitor CA-074 Me […] , with (Starvation) or without (Full) autophagic induction, for 1 h and secreted IL-1β was measured. […] (G) LPS-pretreated Atg^5fl/fl Cr^+ and Atg^5fl/fl Cre^− BMMs were stimulated with […] nigericin for 1 h in OptiMEM and release of cathepsin B was determined by immunoblotting. […]

| Molecule | secretion of IL-1β |
| --- | --- |
| CC(C)n1nc(-c2cc3cc(O)ccc3[nH]2)c2c(N)ncnc21 [pp242] | increased secretion of IL-1β |

Same assay, conditions: starvation, nigericin, 1 h

| Molecule | IL-1β secretion |
| --- | --- |
| CCCNC(=O)[C@H]1O[C@@H]1C(=O)N[C@H](C(=O)N1CCC[C@H]1C(=O)OC)[C@@H](C)CC [CA-074 Me] | strongly inhibited IL-1β secretion |

The molecules below were run on pro-IL-1β (assay: Expression of pro-IL-1β in BMMs). Conditions: cells treated with bafilomycin A1 or CA-074 Me.
Assay type: cell-based, murine
Description: To induce pro-IL-1β expression, cells were pretreated overnight with 100 ng/ml LPS (Sigma). Inflammasome was induced with […] nigericin (Sigma) for 1 h or with […] Alum (Thermoscientific) for 1 h or with […] silica crystals (MIN-U-SIL-15, US Silica) for 1 h or with […] Amyloid-b peptide (Ab; American Peptide Company) fibrils prepared as described (Moore et al, 2002). […] Starvation and other treatments (except for macrophage priming with LPS done in advance) were carried out concurrently (i.e., initiated at the same time).
For all conditions, cell-free supernatants were assayed by immunoblotting after TCA precipitation for mouse IL-1β p17 (R&D), caspase-1 p10 (Santa Cruz Biotechnology), HMGB1 (Abcam) and Cathepsin B (R&D) or by ELISA for mouse IL-1β (R&D), IL-18 (MBL), and HMGB1 (IBL). Immunofluorescence confocal microscopy was carried out using a Zeiss LSM 510 Meta microscope (laser wavelengths 488, 543, and 633 nm). Antibodies against endogenous proteins IL-1β (Abcam), Sec6 (Shu C Hsu, Rutgers University, NJ, USA), Cathepsin B (R&D), Rab8a (Abcam), GORASP1 (Novus), GORASP2 (ProteinTech Group), GM130 (BD), LC3 (MBL) and GFP (Abcam; for BMMs from GFP-LC3 knock-in transgenic mice) were used for indirect immunofluorescence analysis. […]

| Molecule | expression of pro-IL-1β |
| --- | --- |
| CCCNC(=O)[C@H]1O[C@@H]1C(=O)N[C@H](C(=O)N1CCC[C@H]1C(=O)OC)[C@@H](C)CC [CA-074 Me] | No differences |
